In article PMC6279743, “A small molecule ApoE4-targeted therapeutic candidate that normalizes sirtuin 1 levels and improves cognition in an Alzheimer’s disease mouse model” (Scientific Reports, 2018):
Like-named read-outs stand apart in the source and are kept apart here.

Legend:
[1] = tested on: SirT1 levels in N2a-E4 cells; assay: SirT1 AlphaLISA in N2a-E4 cells (HTS, secondary and dose-response testing); type: cell-based, murine; settings: for EC50: Mus musculus
Experimental: For HTS we tested a portion of the UCLA compound library (10 plates) including the NIH Clinical Collection library (3 plates). Complete medium (25 µL) was added to each well of 384-well plates, then library compounds were added (250 nL) followed by a suspension of 4 × 10^5 cells/mL murine neuroblastoma N2a cells (25 μL) stably transfected with ApoE4 (N2a-E4). After incubation of the N2a-E4 cells with compounds for 24 hrs at 37 °C and 5% CO2, all but ~6 μL of medium were removed and AlphaLISA Lysis Buffer complemented with HALT protease/phosphatase inhibitor (20 μL, 1X final) was added to each well. To maximize lysis, the plates were frozen at −80 °C. For the AlphaLISA, lysates were thawed and vortexed for 1 min at 3000 rpm.
The AlphaLISA comprises streptavidin donor beads, biotinylated anti-SirT1 N-terminal antibody (19A7AB4), and acceptor beads conjugated to the anti-SirT1 C-terminal antibody (1F3); when the target protein is bound by both antibodies, the beads are in close enough proximity for a transfer of ^1O2 and emission of a detectable signal (Supplementary Fig. S3). For the AlphaLISA, a 384-proxy plate was preloaded with AlphaLISA buffer (2 µL, 1X) with HALT (1X), then cell lysate (2 μL) was transferred to the proxy plate followed by the antibody-mix (2 μL). After incubation at room temperature for 1 hr, the donor bead mixture was added (2 µL) and incubated for an additional 30 min. The plates were then read in an Envision plate reader. All points are one replicate. The standard curve is generated by serial dilution of recombinant SirT1 to assess the linear range of the assay; study samples undergo serial dilution as well. We use A03 as a positive control in the HTS assay. The Z-value, while not ideal, was <1 for the assay (Supplementary Fig. S3).
Compound in medium (50 µL, 2X) was loaded into a 96-well plate, then 4 × 10^4 cells were added to each well; 24 hrs later the medium was removed and cells lysed. Lysate protein concentration was determined using the Bradford assay according to the manufacturer’s instructions. SirT1 was determined in lysates using the SirT1 AlphaLISA as described above.

E4FAD mice [2] = assay: Toxicity observation and body weights in 56-day study; type: in vivo
Text: E4FAD mice were 10–12 mo and NTg mice 7–9 mo at the start of the study.

E4FAD mice [3] = assay: Y maze Forced Alternation in 56-day study; type: in vivo; settings: minute 1 or by 5 minutes
Experimental: Study mice also underwent Forced Alternation (FA) tests in a Y maze apparatus[74],[75]. Details of the method can be found in Supplementary Methods. Briefly, individual test mice are prevented from entering one of three arms of the maze in the first 5 minute trial and after 30 minutes is returned to maze wherein the blocked arm is available. Time in Novel Arm C [%] was defined as the time spent in the novel arm divided by the time spent in all arms during the first minute.
A small molecule ApoE4-targeted therapeutic candidate that normalizes sirtuin 1 levels and Improves cognition in an Alzheimer’s disease mouse model
Jesus Campagna, Patricia Spilman, Barbara Jagodzinska, Dongsheng Bai, Asa Hatami, Chunni Zhu, Tina Bilousova, Michael Jun, Chris Jean Elias, Johnny Pham, Gregory Cole, Mary Jo LaDu, Michael E. Jung, Dale E. Bredesen, and […]
Confirmation assay in A172-E4 cells. […]
Cells were incubated with the compound for 60 hrs, then cell culture medium (for sAPPα) and cells (lysates for SirT1) were harvested and levels of sAPPα and SirT1 determined by AlphaLISA. […]
PAMPA. […] The parameters determined are Tr = retention time of compound; KIAM= (Tr-T0)/T0; T0= is the delay time of the column, determined by use of 100 µg/mL citric acid) and was T0= 1.24 min; and (KIAM/MW4)*10-(10). […]
Forced Alternation. […] An arm entry was recorded when all 4 paws of the mouse entered the arm. […]

SMILES: CC(N)C(=O)OC(C)(C)Cc1ccc(Cl)cc1 (centres unmarked) [A03, alaproclate]
- EC50 ([1]; read-out: EC50 for enhancement of SirT1, N2a-E4 cells, dose-response curve, n = 3 at each concentration): 2.3 µM
- EC50 ([1]; N2a-E4 cells, dose-response curve, n = 3 at each concentration, read-out: EC50 for enhancement of SirT1): 2 µM
- Dose-response increase in SirT1 in secondary testing ([1]; N2a-E4 cells, 1, 5 and 10 μM): showed a dose-response
- SirT1 increase, racemate vs enantiomers ([1]; N2a-E4 cells, 5 and 50 μM, n = 3 wells): increase SirT1 in N2a-E4 with high significance
- SirT1 level in HTS ([1]; N2a-E4 cells, 24 hrs, NIH Clinical Collection screen, A03 5 μM as positive control): significantly increased SirT1
- SirT1 (normalized to protein) ([1]; N2a-E4 cells, A03 at 5 or 50 μM vs DMSO): dose-response increase
- SirT1 increase vs DMSO control at 1 μM ([1]; secondary assay, N2a-E4 cells, 1 μM, n = 6 wells): modest but significant increases
- SirT1 increase vs DMSO control at 5 and 10 μM ([1]; secondary assay, N2a-E4 cells, 5 and 10 μM, n = 6 wells): increased SirT1
- Body weights (E4FAD mice [2]; 56-day oral study): stayed the same
- Signs of toxicity by cage-side observation (E4FAD mice [2]; E4FAD mice, oral 56-day treatment): no signs of toxicity
- Y maze FA, entries into the Novel Arm C (E4FAD mice [3]): no significant differences amongst groups
